The source of these data is ChEMBL document CHEMBL1144164, “Carbonic anhydrase inhibitors: inhibition of the beta-class enzymes from the fungal pathogens Candida albicans and Cryptococcus neoformans with simple anions” (Bioorg Med Chem Lett, 2008).

Experiment [1] has as its target Carbonic anhydrase 1 (Homo sapiens) (UniProt P00915).
Description: Inhibition of human carbonic anhydrase 1 at 20 degC by CO2 hydration method
Experiment [2] has as its target Carbonic anhydrase 2 (Homo sapiens) (UniProt P00918).
Description: Inhibition of human carbonic anhydrase 2 at 20 degC by CO2 hydration method
Experiment [3] concerns the target T1, Carbonic anhydrase (Methanobacterium thermoautotrophicum) (UniProt Q50565).
T1 sequence (whole entry): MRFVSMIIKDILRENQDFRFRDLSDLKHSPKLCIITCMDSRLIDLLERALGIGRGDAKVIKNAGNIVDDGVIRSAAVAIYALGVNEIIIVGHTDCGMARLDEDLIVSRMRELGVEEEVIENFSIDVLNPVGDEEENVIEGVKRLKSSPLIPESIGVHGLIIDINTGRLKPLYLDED
The settings on record: Methanothermobacter thermautotrophicus.
Description: Inhibition of Methanobacterium thermoautotrophicum Cab at 20 degC by CO2 hydration method

Each structure is given as a SMILES string.

Sequence of Carbonic anhydrase 1 (Homo sapiens) (P00915 2-261 limits assumed): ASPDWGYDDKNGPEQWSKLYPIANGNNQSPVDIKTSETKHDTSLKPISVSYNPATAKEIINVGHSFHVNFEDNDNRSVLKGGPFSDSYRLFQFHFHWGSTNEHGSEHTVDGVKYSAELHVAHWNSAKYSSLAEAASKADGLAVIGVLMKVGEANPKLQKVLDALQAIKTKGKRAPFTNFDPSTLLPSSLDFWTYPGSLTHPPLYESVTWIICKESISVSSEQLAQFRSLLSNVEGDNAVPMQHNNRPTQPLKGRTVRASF
Description for Cryptococcus neoformans: Inhibition of Cryptococcus neoformans Can2 at 20 degC by CO2 hydration method

Regarding `NS(=O)(=O)O`, the Kinact in experiment [1] amounted to 0.021 mM; in experiment [2], 0.39 mM; in experiment [3], 44 mM; in the experiment on Cryptococcus neoformans, 8.22 mM.
